Legend:
Assay type in all cases: biochemical
K-Ras G12S = target: T1, K-Ras G12S (Homo sapiens, UniProt P01116, G12S); assay: HTRF resonance energy transfer assay, K-Ras G12S / SOS1 interaction; conditions: HTRF assay of Example 5; read-out: IC50 against K-Ras G12S
T1 construct: made in house; host or cells: E. coli BL21 (DE3)
From the text: (§1) This assay can be also used to assess a selective inhibition or reduction of signaling output of a mutant Ras protein relative to a wildtype, or relative to a different mutant Ras protein. For example, the equilibrium interaction of wildtype Kras or K-Ras mutant (e.g., wildtype or a mutant thereof) with SOS1 (e.g., hSOS1) can be assessed as a proxy or an indication for a subject compound's ability to bind and inhibit Ras protein. HTRF assay detects from (i) a fluorescence resonance energy transfer (FRET) donor (e.g., antiGST-Europium) that is bound to GST-tagged K-Ras mutant to (ii) a FRET acceptor (e.g., anti-6His-XL665) bound to a His-tagged hSOS1.
(§2) The assay buffer can contain˜5 mM HEPES pH 7.4, ˜150 mM NaCl, ˜ 1 mM DTT, 0.05% BSA and 0.0025%(v/v) Igepal. A Ras working solution is prepared in an assay buffer containing typically a suitable amount of the protein construct (e.g., GST-tagged K-Ras mutant) and the FRET donor (e.g., antiGST-Eu(K) from Cisbio, France). A SOS1 working solution is prepared in an assay buffer containing suitable amount of the protein construct (e.g., His-hSOS1) and the FRET acceptor (e.g., anti-6His-XL665 from Cisbio, France). A suitable amount of the protein construct will depend on the range of activity or range of IC50 values being detected or under investigation. For detecting IC50 within a range of 500 nM, the protein constructs of the same range of molarity can be utilized.
(§3) A fixed volume of DMSO with or without test compound is transferred into a 384-well plate. Ras working solution is added to all wells of the test plate. SOS1 working solution is added to all wells except for those that are subsequently filled the inhibitor control solution. Upon incubation for about 10 minutes or longer, the fluorescence is measured with a M1000Pro plate reader (Tecan) using HTRF detection (excitation 337 nm, emission 1: 620 nm, emission 2: 665 nm). Compounds are tested in duplicates at different concentrations (for example, 10 μM, 2.5 μM, 0.63 μM, 0.16 μM, 0.04 μM, 0.01 μM test compound). The ratiometric data (i.e., emission 2 divided by emission 1) is used to calculate IC50 values against Ras using GraphPad Prism (GraphPad software). Following this general procedure, samples were tested with or without a subject compound disclosed herein including compounds exemplified in Table 1 to assess their abilities to inhibit a K-Ras mutant relative to another mutant or WT. Signaling output measured in terms of IC50 values can be obtained, a ratio of IC50 against one mutant relative to another mutant can be calculated. For instance, a selective reduction of K-Ras G12D signaling output can be evidenced by a ratio greater than one. In particular, a selective reduction of K-Ras G12D signaling relative to K-Ras WT signaling is evidenced as the ratio of IC50 (against K-Ras WT) to IC50 (against K-Ras G12D) is greater than 1.

K-Ras G12V = target: T2, K-Ras G12V (Homo sapiens, UniProt P01116, G12V); assay: HTRF resonance energy transfer assay, K-Ras G12V / SOS1 interaction; conditions: HTRF assay of Example 5; read-out: IC50 against K-Ras G12V
T2 construct: made in house; host or cells: E. coli BL21 (DE3)
T2 sequence (P01116 1-188 isoform P01116-2 G12V): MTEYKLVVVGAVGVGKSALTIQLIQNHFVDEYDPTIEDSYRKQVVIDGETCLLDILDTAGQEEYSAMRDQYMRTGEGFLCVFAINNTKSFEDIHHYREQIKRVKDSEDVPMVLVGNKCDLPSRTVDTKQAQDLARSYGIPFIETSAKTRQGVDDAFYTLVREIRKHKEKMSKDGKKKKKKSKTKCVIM
From the text: as §1, §2, §3

K-Ras WT = target: T3, K-Ras WT (Homo sapiens, UniProt P01116); assay: HTRF resonance energy transfer assay, K-Ras WT / SOS1 interaction; conditions: HTRF assay of Example 5; read-out: IC50 against K-Ras WT
T3 construct: made in house; host or cells: E. coli BL21 (DE3)
T3 sequence (P01116 1-188 isoform P01116-2): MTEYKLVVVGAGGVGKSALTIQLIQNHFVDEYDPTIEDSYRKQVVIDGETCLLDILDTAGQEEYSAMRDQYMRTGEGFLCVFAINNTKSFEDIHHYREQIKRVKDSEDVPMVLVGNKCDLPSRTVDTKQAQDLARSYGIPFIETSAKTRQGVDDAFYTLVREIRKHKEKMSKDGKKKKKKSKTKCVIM
From the text: as §1, §2, §3

K-Ras G12D = target: T4, K-Ras G12D (Homo sapiens, UniProt P01116, G12D); assay: HTRF resonance energy transfer assay, K-Ras G12D / SOS1 interaction; conditions: HTRF assay of Example 5; read-out: IC50 against K-Ras G12D
T4 construct: made in house; host or cells: E. coli BL21 (DE3)
T4 sequence (P01116 1-188 isoform P01116-2 G12D): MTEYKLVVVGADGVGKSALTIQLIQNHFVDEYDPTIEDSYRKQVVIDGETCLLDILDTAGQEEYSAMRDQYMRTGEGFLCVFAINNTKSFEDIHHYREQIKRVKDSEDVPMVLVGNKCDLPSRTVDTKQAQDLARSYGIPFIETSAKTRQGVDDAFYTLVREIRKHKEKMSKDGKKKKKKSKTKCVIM
From the text: as §1, §2, §3

T1 sequence (P01116 1-188 isoform P01116-2 G12S): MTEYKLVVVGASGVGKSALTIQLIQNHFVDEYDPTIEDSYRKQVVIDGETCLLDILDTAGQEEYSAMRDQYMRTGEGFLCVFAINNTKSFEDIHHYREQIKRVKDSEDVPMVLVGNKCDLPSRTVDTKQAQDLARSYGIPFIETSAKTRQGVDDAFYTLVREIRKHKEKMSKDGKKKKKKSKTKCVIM

IC50 (K-Ras G12S) | IC50 (K-Ras G12V) | IC50 (K-Ras WT) | IC50 (K-Ras G12D) | SMILES
< 100 nM | < 100 nM | < 100 nM |  | N#Cc1c(N)sc2c(F)ccc(-c3c(Cl)c4c5c(nc(OC[C@@]67CCCN6C[C@H](F)C7)nc5c3F)N(CC(F)F)C(c3cncs3)CO4)c12 (stereo partly drawn) [Compound 789, 2-amino-4-(8-chloro-4-(2,2-difluoroethyl)-10-fluoro-2-(((2R,7aS)-2-fluorotetrahydro-1H-pyrrolizin-7a(5H)-yl)methoxy)-5-(thiazol-5-yl)-5,6-dihydro-4H-[1,4]oxazepino[5,6,7-de]quinazolin-9-yl)-7-fluorobenzo[b]thiophene-3-carbonitrile]
< 100 nM | < 100 nM | < 100 nM |  | N#Cc1c(N)sc2c(F)ccc(-c3c(Cl)c4c5c(nc(OC[C@@]67CCCN6C[C@H](F)C7)nc5c3F)N(CC(F)F)[C@H](C(F)F)CO4)c12 [Compound 1099, 2-amino-4-((S)-8-chloro-4-(2,2-difluoroethyl)-5-(difluoromethyl)-10-fluoro-2-(((2R,7aS)-2-fluorotetrahydro-1H-pyrrolizin-7a(5H)-yl)methoxy)-5,6-dihydro-4H-[1,4]oxazepino[5,6,7-de]quinazolin-9-yl)-7-fluorobenzo[b]thiophene-3-carbonitrile]
< 100 nM | < 100 nM | < 100 nM |  | N#Cc1c(N)sc2c(F)ccc(-c3c(Cl)c4c5c(nc(OC[C@@]67CCCN6C[C@H](F)C7)nc5c3F)N(CC(F)F)C(c3cnco3)CO4)c12 (single isomer, unassigned) [Compound 860]
 |  | < 100 nM | < 100 nM | N#Cc1c(N)sc2c(F)ccc(-c3c(Cl)c4c5c(nc(OC[C@@]67CCCN6C[C@H](F)C7)nc5c3F)N(C3CCOC3)[C@@H](C(F)F)CO4)c12 (stereo partly drawn) [Compound 620, 2-amino-4-((5R)-8-chloro-5-(difluoromethyl)-10-fluoro-2-(((2R,7aS)-2-fluorotetrahydro-1H-pyrrolizin-7a(5H)-yl)methoxy)-4-(tetrahydrofuran-3-yl)-5,6-dihydro-4H-[1,4]oxazepino[5,6,7-de]quinazolin-9-yl)-7-fluorobenzo[b]thiophene-3-carbonitrile]
< 100 nM | < 100 nM | < 100 nM |  | CN1c2nc(OC[C@@]34CCCN3C[C@H](F)C4)nc3c(F)c(-c4ccc(F)c5sc(N)c(C#N)c45)c(Cl)c(c23)OCC[C@H]1C1(F)CC1 [Compound 1221, 2-amino-4-((5S)-9-chloro-11-fluoro-5-(1-fluorocyclopropyl)-2-(((2R,7aS)-2-fluorotetrahydro-1H-pyrrolizin-7a(5H)-yl)methoxy)-4-methyl-4,5,6,7-tetrahydro-[1,5]oxazocino[4,3,2-de]quinazolin-10-yl)-7-fluorobenzo[b]thiophene-3-carbonitrile]
< 100 nM |  | < 100 nM | < 100 nM | N#Cc1c(N)sc2c(F)ccc(-c3c(Cl)c4c5c(nc(OC[C@@]67CCCN6C[C@H](F)C7)nc5c3F)N(CC(F)F)C(C3CCNC3)CO4)c12 (stereo partly drawn) [Compound 1034, 2-amino-4-(8-chloro-4-(2,2-difluoroethyl)-10-fluoro-2-(((2R,7aS)-2-fluorotetrahydro-1H-pyrrolizin-7a(5H)-yl)methoxy)-5-(pyrrolidin-3-yl)-5,6-dihydro-4H-[1,4]oxazepino[5,6,7-de]quinazolin-9-yl)-7-fluorobenzo[b]thiophene-3-carbonitrile]
 |  | < 100 nM | < 100 nM | C[C@H]1CN(CC2(N(C)C)CCC2)c2nc(OC[C@@]34CCCN3C[C@H](F)C4)nc3c(F)c(-c4ccc(F)c5sc(N)c(C#N)c45)c(Cl)c(c23)O1 [Compound 910, 2-amino-4-((6S)-8-chloro-4-((1-(dimethylamino)cyclobutyl)methyl)-10-fluoro-2-(((2R,7aS)-2-fluorotetrahydro-1H-pyrrolizin-7a(5H)-yl)methoxy)-6-methyl-5,6-dihydro-4H-[1,4]oxazepino[5,6,7-de]quinazolin-9-yl)-7-fluorobenzo[b]thiophene-3-carbonitrile]
< 100 nM | < 100 nM | < 100 nM |  | N#Cc1c(N)sc2c(F)ccc(-c3c(Cl)c4c5c(nc(OC[C@@]67CCCN6C[C@H](F)C7)nc5c3F)N(CC(F)F)[C@@H](CNC(=O)CC3COC3)CO4)c12 [Compound 766, N-(((5S)-9-(2-amino-3-cyano-7-fluorobenzo[b]thiophen-4-yl)-8-chloro-4-(2,2-difluoroethyl)-10-fluoro-2-(((2R,7aS)-2-fluorotetrahydro-1H-pyrrolizin-7a(5H)-yl)methoxy)-5,6-dihydro-4H-[1,4]oxazepino[5,6,7-de]quinazolin-5-yl)methyl)-2-(oxetan-3-yl)acetamide]
 |  |  | < 100 nM | C[C@H]1COc2c(Cl)c(-c3ccc(F)c4sc(N)c(C#N)c34)c(F)c3nc(OC[C@@]45CCCN4C[C@H](F)C5)nc(c23)N1CC(F)F [Compound 783, 2-amino-4-((5S)-8-chloro-4-(2,2-difluoroethyl)-10-fluoro-2-(((2R,7aS)-2-fluorotetrahydro-1H-pyrrolizin-7a(5H)-yl)methoxy)-5-methyl-5,6-dihydro-4H-[1,4]oxazepino[5,6,7-de]quinazolin-9-yl)-7-fluorobenzo[b]thiophene-3-carbonitrile]
< 100 nM | < 100 nM | < 100 nM |  | C[C@H](Oc1nc2c3c(c(Cl)c(-c4ccc(F)c5sc(N)c(C#N)c45)c(F)c3n1)OCCN2C1CCCOCC1)[C@@H]1CCCN1C (stereo partly drawn) [Compound 1121, 2-amino-4-(8-chloro-10-fluoro-2-((S)-1-((S)-1-methylpyrrolidin-2-yl)ethoxy)-4-(oxepan-4-yl)-5,6-dihydro-4H-[1,4]oxazepino[5,6,7-de]quinazolin-9-yl)-7-fluorobenzo[b]thiophene-3-carbonitrile]
< 100 nM | < 100 nM | < 100 nM |  | CC(OC(F)F)C12CC(N3CCOc4c(Cl)c(-c5ccc(F)c6sc(N)c(C#N)c56)c(F)c5nc(OC[C@@]67CCCN6C[C@H](F)C7)nc3c45)(C1)C2 (stereo partly drawn) [Compound 1081, 2-amino-4-(8-chloro-4-(3-(1-(difluoromethoxy)ethyl)bicyclo[1.1.1]pentan-1-yl)-10-fluoro-2-(((2R,7aS)-2-fluorotetrahydro-1H-pyrrolizin-7a(5H)-yl)methoxy)-5,6-dihydro-4H-[1,4]oxazepino[5,6,7-de]quinazolin-9-yl)-7-fluorobenzo[b]thiophene-3-carbonitrile]
< 100 nM | < 100 nM | < 100 nM |  | N#Cc1c(N)sc2c(F)ccc(-c3c(Cl)c4c5c(nc(OC[C@@]67CCCN6C[C@H](F)C7)nc5c3F)N(C3CCOC3)[C@@H](C3(C#N)CC3)CO4)c12 (stereo partly drawn) [Compound 1130, 2-amino-4-((5S)-8-chloro-5-(1-cyanocyclopropyl)-10-fluoro-2-(((2R,7aS)-2-fluorotetrahydro-1H-pyrrolizin-7a(5H)-yl)methoxy)-4-(tetrahydrofuran-3-yl)-5,6-dihydro-4H-[1,4]oxazepino[5,6,7-de]quinazolin-9-yl)-7-fluorobenzo[b]thiophene-3-carbonitrile]

SMILES | IC50 (K-Ras G12S) | IC50 (K-Ras G12V) | IC50 (K-Ras WT) | IC50 (K-Ras G12D)
N#Cc1c(N)sc2c(F)ccc(-c3c(Cl)c4c5c(nc(OC[C@@]67CCCN6C[C@H](F)C7)nc5c3F)N(CC(F)F)C(C3CN(C(=O)C5CN5)C3)CO4)c12 (stereo partly drawn) [Compound 762, 2-amino-4-(5-(1-(aziridine-2-carbonyl)azetidin-3-yl)-8-chloro-4-(2,2-difluoroethyl)-10-fluoro-2-(((2R,7aS)-2-fluorotetrahydro-1H-pyrrolizin-7a(5H)-yl)methoxy)-5,6-dihydro-4H-[1,4]oxazepino[5,6,7-de]quinazolin-9-yl)-7-fluorobenzo[b]thiophene-3-carbonitrile] | < 100 nM | < 100 nM | < 100 nM | 

Reference: patent US12209102B2, “Heterocyclic compounds and uses thereof” (Kumquat Biosciences Inc., priority 2022, dated 2025)
